# Activity calls are given as the source filed them.
# How the values were obtained:
# Interleukin-8 [1] = biological target: T1, Interleukin-8 (Homo sapiens, UniProt P10145); experiment: Dose Response confirmation of uHTS small molecule hits for cystic fibrosis induced NFkb Inhibitors in a TNFa-induced IL8 counterscreen.; format: functional; details: read-out: IC50_Mean
# Interleukin-8 [2] = biological target: T1, Interleukin-8; experiment: Dose Response confirmation of uHTS small molecule hits for cystic fibrosis induced NFkb Inhibitors in a PAF-induced IL8 counterscreen.; format: functional; details: read-out: IC50_Mean
# cells = format: functional, cell-based; details: HEK-CNG
# Galanin receptor type 3 = Galanin receptor type 3 (Homo sapiens, UniProt O60755); experiment: Fluorescence-based cell-based primary high throughput dose response assay to identify antagonists of the Galanin Receptor 3 (GalR3).; format: functional
# Nonstructural protein 1 = Nonstructural protein 1 (Influenza A virus, UniProt Q194T2); format: functional, Influenza A virus (A/California/07/2009(H1N1))
# [3] = AlphaScreen signal interference compounds, dose response, artefact control for ARNT-TACC3 interaction inhibitor project, biochemical, luminescence, cherry-pick (AID 651705); format: functional;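 also: AlphaScreen bead proximity signal that flags compounds interfering with the detection technology; potency reflects signal decrease which marks the compound as an assay artifact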
# [4] = NIH/3T3 fibroblast cytotoxicity, dose response, cytotoxicity control for T. cruzi growth inhibitor project, cell-based, cherry-pick samples, set 2 (AID 651817); format: functional; details: NIH3T3
# [5] = intracellular Trypanosoma cruzi inhibitors in host cells – cell-based, plate reader, cherry-pick samples, set 3, dose response (AID 651818); format: functional;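 also: compounds incubated with infected cells for about four days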
# [6] = ARNT/TACC3 interaction disruptors, potency, confirmation, biochemical, AlphaScreen, cherry-picked samples (AID 651703); format: functional, Homo sapiens;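 also: His-tagged ARNT PAS-B domain paired with GST-TACC3 E629A dimer coactivator fragment; potency of inhibitors that break up the complex and lower AlphaScreen signal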
# [7] = biological target: T2, ATP-dependent translocase ABCB1 (Homo sapiens, UniProt P08183); experiment: ABCG2 efflux pump inhibitor potency, dose response, Ig-MXP3 cells, JC-1, flow cytometry, set 2 (AID 504566); format: functional; details: read-out: EC50_MICROM_;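 also: flow cytometry median green fluorescence of retained JC-1 dye; potency of efflux pump inhibition measured as rising substrate retention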
# [8] = biological target: T2, ATP-dependent translocase ABCB1; experiment: ABCB1 efflux inhibitor potency, dose response, Jurkat-DNR cells, JC-1, flow cytometry, set 2 (AID 504569); format: functional; details: read-out: EC50_MICROM_;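 also: potency of pump inhibitors that raise cellular JC-1 green fluorescence up to the nicardipine level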
# [9] = ZM109 Env clade C HIV-1 fusion inhibitors, dose response, HeLa effector, CEM target cells, luciferase, cherry-pick (AID 652058); format: functional, cell-based
# HeLa = experiment: HeLa cell cytotoxicity, dose response, cytotoxicity control, ATP luminescence, cherry-pick samples (AID 687004); format: functional, cell-based; details: Homo sapiens
# Protein Wnt-3a = Protein Wnt-3a (Mus musculus, UniProt P27467); experiment: SAR analysis of small molecule antagonists of Gli-SUFU in a Wnt3a luminescent reporter assay.; format: functional
# [10] = cytotoxicity in OVCAR4 cells, dose response, cytotoxicity control for PAX8 inhibitor project, cell-based, plate reader, dry powder, SA11 (AID 743150); format: functional; details: OVCAR-4
# [11] = NIH:OVCAR-3 ovarian cancer cell cytotoxicity, dose response, PAX8 inhibitor project, plate reader, dry powder samples (AID 743044); format: functional, cell-based
# [12] = PAX2 cell-based inhibition, dose response, selectivity assay for PAX8 inhibitor project, plate reader, dry powder samples (AID 743048); format: functional;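 also: HEK293 cells carrying a WT1 promoter luciferase reporter driven by expressed Pax2; potency is for inhibition of Pax2 driven reporter signal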
# [13] = IOSE-T80 ovarian epithelial cell cytotoxicity, dose response, cytotoxicity control for PAX8 inhibitor project, plate reader, dry powder samples (AID 743045); format: functional, cell-based
# [14] = cytotoxicity in COV434 cells, dose response, cytotoxicity control for PAX8 inhibitor project, cell-based, plate reader, dry powder, SA7 (AID 743145); format: functional
# [15] = cytotoxicity dependent on PAX8, dose response, cell-based, plate reader, dry powder (AID 743049); format: functional
# [16] = PAX5 activity inhibitors, dose response, selectivity assay for PAX8 inhibitor project, cell-based, plate reader, dry powder samples (AID 743047); format: functional;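 also: HEK293 cells carrying a Pax5 driven CD19 promoter luciferase reporter; potency of inhibitors that lower reporter luminescence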
# [17] = IGROV1 ovarian cancer cell cytotoxicity, dose response, PAX8 inhibitor project, plate reader, dry powder samples (AID 743043); format: functional, cell-based; details: IGROV-1
# [18] = cytotoxicity in COV362 ovarian cancer cells, dose response, cytotoxicity control for PAX8 inhibitor project, cell-based, plate reader, dry powder, SA12 (AID 743144); format: functional
# [19] = cytotoxicity in OV-90 ovarian cancer cells, dose response, PAX8 inhibitor project, cell-based, plate reader, dry powder, SA8 (AID 743149); format: functional
# [20] = A549 cell cytotoxicity, dose response, cytotoxicity control, CellTiter-Glo luminescence, dry powder, set 3 (AID 743146); format: functional, cell-based
# [21] = HEK293 cell cytotoxicity, dose response, cytotoxicity control, ATP luminescence, dry powder, Set6 (AID 743142); format: functional, cell-based
# T1 sequence (P10145 whole entry): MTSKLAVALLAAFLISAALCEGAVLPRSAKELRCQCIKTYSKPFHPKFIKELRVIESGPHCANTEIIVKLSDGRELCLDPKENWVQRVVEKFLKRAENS
# T2 sequence (P08183 whole entry): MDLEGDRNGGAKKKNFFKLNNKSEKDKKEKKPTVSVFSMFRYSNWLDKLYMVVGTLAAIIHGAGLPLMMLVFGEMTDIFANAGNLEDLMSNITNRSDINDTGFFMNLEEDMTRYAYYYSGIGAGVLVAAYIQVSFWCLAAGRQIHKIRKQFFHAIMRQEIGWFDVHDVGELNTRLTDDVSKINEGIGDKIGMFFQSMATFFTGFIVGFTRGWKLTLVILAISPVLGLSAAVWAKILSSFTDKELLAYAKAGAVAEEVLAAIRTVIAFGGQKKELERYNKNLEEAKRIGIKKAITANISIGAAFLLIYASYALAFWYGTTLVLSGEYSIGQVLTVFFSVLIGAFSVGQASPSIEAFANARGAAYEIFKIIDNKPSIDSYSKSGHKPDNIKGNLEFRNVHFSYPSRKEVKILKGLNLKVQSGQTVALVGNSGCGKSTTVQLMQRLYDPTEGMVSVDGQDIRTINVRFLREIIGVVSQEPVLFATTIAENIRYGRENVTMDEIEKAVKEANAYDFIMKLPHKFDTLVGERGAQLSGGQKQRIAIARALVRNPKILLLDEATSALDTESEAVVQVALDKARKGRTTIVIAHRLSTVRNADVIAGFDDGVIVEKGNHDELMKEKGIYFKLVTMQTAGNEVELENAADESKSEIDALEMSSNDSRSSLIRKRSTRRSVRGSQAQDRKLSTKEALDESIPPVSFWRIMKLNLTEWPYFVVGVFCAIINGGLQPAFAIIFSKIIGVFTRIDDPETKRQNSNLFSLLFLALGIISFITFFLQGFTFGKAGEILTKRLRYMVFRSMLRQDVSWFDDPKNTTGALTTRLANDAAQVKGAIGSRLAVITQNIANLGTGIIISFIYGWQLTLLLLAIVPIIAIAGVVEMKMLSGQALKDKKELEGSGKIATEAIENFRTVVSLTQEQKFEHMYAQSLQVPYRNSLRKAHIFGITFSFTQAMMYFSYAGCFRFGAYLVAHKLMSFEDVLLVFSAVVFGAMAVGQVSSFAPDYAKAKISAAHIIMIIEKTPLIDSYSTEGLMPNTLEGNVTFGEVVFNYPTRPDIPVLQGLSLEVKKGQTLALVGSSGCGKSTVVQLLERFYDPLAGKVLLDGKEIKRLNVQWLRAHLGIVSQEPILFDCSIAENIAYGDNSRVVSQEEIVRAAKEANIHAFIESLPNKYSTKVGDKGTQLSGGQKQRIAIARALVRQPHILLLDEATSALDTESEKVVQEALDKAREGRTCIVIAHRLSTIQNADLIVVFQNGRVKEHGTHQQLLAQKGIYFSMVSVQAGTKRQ
# Sequence of Galanin receptor type 3 (O60755 whole entry): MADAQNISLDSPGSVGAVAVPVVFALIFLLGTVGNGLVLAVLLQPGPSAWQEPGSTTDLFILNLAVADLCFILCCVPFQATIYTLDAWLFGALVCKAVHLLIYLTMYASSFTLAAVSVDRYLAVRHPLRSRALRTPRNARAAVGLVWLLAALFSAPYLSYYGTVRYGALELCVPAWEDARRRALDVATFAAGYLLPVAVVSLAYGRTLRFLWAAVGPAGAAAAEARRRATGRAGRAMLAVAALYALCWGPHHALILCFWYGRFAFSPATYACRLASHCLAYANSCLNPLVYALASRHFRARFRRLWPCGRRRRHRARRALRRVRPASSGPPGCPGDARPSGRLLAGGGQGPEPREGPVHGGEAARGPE
# Sequence of Nonstructural protein 1 (Q194T2 whole entry): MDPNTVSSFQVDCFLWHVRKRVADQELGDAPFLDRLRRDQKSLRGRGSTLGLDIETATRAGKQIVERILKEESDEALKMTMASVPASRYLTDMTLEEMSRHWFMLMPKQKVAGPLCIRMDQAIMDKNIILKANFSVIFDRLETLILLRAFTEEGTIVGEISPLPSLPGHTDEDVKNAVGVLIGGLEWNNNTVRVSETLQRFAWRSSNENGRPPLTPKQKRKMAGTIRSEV
# Sequence of Protein Wnt-3a (P27467 whole entry): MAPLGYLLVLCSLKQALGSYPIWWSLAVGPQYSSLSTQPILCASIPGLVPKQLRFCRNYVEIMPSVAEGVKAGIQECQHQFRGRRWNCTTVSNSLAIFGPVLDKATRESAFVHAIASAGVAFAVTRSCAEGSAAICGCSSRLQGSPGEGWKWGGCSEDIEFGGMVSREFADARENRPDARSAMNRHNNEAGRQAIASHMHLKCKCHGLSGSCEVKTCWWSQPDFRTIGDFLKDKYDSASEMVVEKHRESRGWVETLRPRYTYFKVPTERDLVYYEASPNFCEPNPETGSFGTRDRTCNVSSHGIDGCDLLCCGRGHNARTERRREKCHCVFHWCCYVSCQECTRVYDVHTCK
compound,measurement,setting,value
CC1C(c2ccccc2)OCCN1C(=S)Nc1ccc(S(=O)(=O)N2CCCCC2)cc1 (stereo unspecified),IC50,Interleukin-8 [1],4.48 µM (active)
same,IC50,Interleukin-8 [2],3.69 µM (active)
CC(=O)OCC1OC(n2c(S)c(C#N)c(-c3ccccc3)c(C#N)c2=O)C(OC(C)=O)C(OC(C)=O)C1OC(C)=O (stereo unspecified),EC50,cells,> 29.9 µM (inactive)
same,IC50,Galanin receptor type 3,0.503 µM (active)
CCOc1cccc(/C=N/NC(=O)c2cccnc2)c1O,IC50,Nonstructural protein 1,15.5 µM (active)
same,AC50,[3],101 µM (active)
C[C@@H]1CN([C@H](C)CO)C(=O)Cc2cc(NS(=O)(=O)c3ccc(Cl)cc3)ccc2O[C@@H]1CN(C)S(=O)(=O)c1ccc(Cl)cc1,AC50,[4],39 µM (inactive)
same,AC50,[5],3.39 µM (active)
O=C(NC[C@H]1[C@H](c2ccccc2)[C@H](CO)N1Cc1ccccn1)C1CCC1,AC50,[6],129 µM (active)
Cc1cccc(-c2cc3nc(-c4ccccc4)cc(N4CCN(C(=O)c5ccco5)CC4)n3n2)c1,EC50,[7],3.22 µM (active)
same,EC50,[8],3.77 µM (active)
COc1ccccc1C(=O)Nc1ccc2c(c1)OC[C@H](C)N(C(C)=O)C[C@H](C)[C@H](OC)CN(C)C2=O,AC50,[9],33.4 µM (active)
same,AC50,HeLa,44.9 µM (active)
COc1cccc(C(=O)Nc2cc(N3CCCCC3)ncn2)c1,IC50,Protein Wnt-3a,> 21.8 µM (inactive)
N#C[C@@H]1[C@@H](c2ccc(C#Cc3ccccc3F)cc2)[C@@H](CO)N1C(=O)C1CCCC1,AC50,[10],44.3 µM (active)
same,AC50,[11],29.7 µM (active)
same,AC50,[12],16.5 µM (active)
same,AC50,[13],27 µM (active)
same,AC50,[14],10.9 µM (active)
same,AC50,[15],11.9 µM (active)
same,AC50,[16],18.1 µM (active)
same,AC50,[17],47.3 µM (active)
same,AC50,[18],48.5 µM (active)
same,AC50,[19],35.3 µM (active)
COc1ccc(C(=O)NCCC(=O)N[C@@H]2CCCc3ccccc32)cc1,AC50,[20],> 52 µM (inactive)
same,AC50,[21],3.54 µM (active)

# — ChEMBL document CHEMBL1201862, “PubChem BioAssay data set” (2004)
